ChEMBL document CHEMBL1201862, “PubChem BioAssay data set” (2004)
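Test compounds were applied to cells in 96-well plates for 48 hours at 5 doses. GI50 = concentration required for 50% inhibition of growth.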 Activity calls are given as the source filed them. Cut-off read from the data, not from the text of the source: active = GI50 up to about 1.1 µM and inactive = higher.

Key:
Test in all cases: inhibition of tumour cell growth, NCI panel, 48 h
NCI-H522 = test system: NCI-H522
COLO 205 = test system: COLO 205
A549 = test system: A549
IGROV-1 = test system: IGROV-1
Malme-3M = test system: Malme-3M
SF-295 = test system: SF-295
ACHN = test system: ACHN
K562 = test system: K562
UACC-62 = test system: UACC-62
HCT-15 = test system: HCT-15
SNB-75 = test system: SNB-75
OVCAR-5 = test system: OVCAR-5
SK-MEL-2 = test system: SK-MEL-2
786-0 = test system: 786-0
CCRF-CEM = test system: CCRF-CEM
SK-MEL-5 = test system: SK-MEL-5
SN12C = test system: SN12C
HOP-92 = test system: HOP-92
A498 = test system: A498

SMILES	GI50 (NCI-H522)	GI50 (COLO 205)	GI50 (A549)	GI50 (IGROV-1)	GI50 (Malme-3M)	GI50 (SF-295)	GI50 (ACHN)	GI50 (K562)	GI50 (UACC-62)	GI50 (HCT-15) [µM]	GI50 (SNB-75)	GI50 (OVCAR-5)	GI50 (SK-MEL-2)	GI50 (786-0)	GI50 (CCRF-CEM)	GI50 (SK-MEL-5)	GI50 (SN12C)	GI50 (HOP-92)	GI50 (A498)
O=C(O)[C@H](NS(=O)(=O)c1ccc(F)cc1)c1ccccc1	> 100 µM (inactive)	> 100 µM (inactive)	> 100 µM (inactive)	> 100 µM (inactive)	> 100 µM (inactive)	> 100 µM (inactive)	> 100 µM (inactive)	> 100 µM (inactive)	> 100 µM (inactive)	> 100	> 100 µM (inactive)	> 100 µM (inactive)	> 100 µM (inactive)	> 100 µM (inactive)	> 100 µM (inactive)	> 100 µM (inactive)	> 100 µM (inactive)	–	–
CC1(C)C2CCC(N)(C2)C1N (stereo not given)	–	> 100 µM (inactive)	> 100 µM (inactive)	> 100 µM (inactive)	–	> 100 µM (inactive)	> 100 µM (inactive)	> 100 µM (inactive)	> 100 µM (inactive)	> 100	> 100 µM (inactive)	> 100 µM (inactive)	> 100 µM (inactive)	> 100 µM (inactive)	> 100 µM (inactive)	> 100 µM (inactive)	> 100 µM (inactive)	21.1 µM (inactive)	> 100 µM (inactive)
CC12CC(=O)NN=C1c1ccccc1C2 (stereo not given)	> 100 µM (inactive)	> 100 µM (inactive)	> 100 µM (inactive)	> 100 µM (inactive)	> 100 µM (inactive)	> 100 µM (inactive)	> 100 µM (inactive)	> 100 µM (inactive)	> 100 µM (inactive)	> 100	> 100 µM (inactive)	> 100 µM (inactive)	> 100 µM (inactive)	> 100 µM (inactive)	> 100 µM (inactive)	> 100 µM (inactive)	> 100 µM (inactive)	–	> 100 µM (inactive)
COc1ccc([N+]2=NC(c3ccc([N+](=O)[O-])cc3)=NN(c3ccccc3)C2)cc1	2.69 µM (inactive)	68.2 µM (inactive)	71 µM (inactive)	39 µM (inactive)	> 100 µM (inactive)	> 10 µM (inactive)	42.5 µM (inactive)	21 µM (inactive)	–	24.8	–	> 100 µM (inactive)	–	> 100 µM (inactive)	24.9 µM (inactive)	21 µM (inactive)	> 100 µM (inactive)	–	41.6 µM (inactive)
Cc1cccc(-n2c(N)c(-c3nc4ccccc4[nH]3)sc2=S)c1	25.6 µM (inactive)	23.8 µM (inactive)	28.2 µM (inactive)	30.8 µM (inactive)	28.8 µM (inactive)	28.1 µM (inactive)	23.9 µM (inactive)	29.2 µM (inactive)	18.4 µM (inactive)	20.7	50 µM (inactive)	55.1 µM (inactive)	23.7 µM (inactive)	24.4 µM (inactive)	32.2 µM (inactive)	20.9 µM (inactive)	25.3 µM (inactive)	–	89.3 µM (inactive)
COc1ccc(C2C(C(=O)O)=C(CO)Oc3cc4c(cc32)OCO4)c(OC)c1 (stereo not given)	–	68.7 µM (inactive)	70.3 µM (inactive)	> 100 µM (inactive)	> 100 µM (inactive)	62.7 µM (inactive)	63.1 µM (inactive)	87.5 µM (inactive)	57.3 µM (inactive)	67.9	> 100 µM (inactive)	–	–	> 100 µM (inactive)	31 µM (inactive)	42.8 µM (inactive)	43.1 µM (inactive)	> 100 µM (inactive)	–
